Measured values as given in ChEMBL document CHEMBL5614443, “Hybrids of 3-Hydroxypyridin-4(1H)-ones and Long-Chain 4-Aminoquinolines as Potent Biofilm Inhibitors of Pseudomonas aeruginosa Potentiate Tobramycin and Polymyxin B Activity” (J Med Chem, 2024).
Calls of active or inactive are those of the source. The calls are words filed in the database; no cut-off is given here.

What was measured:
Pseudomonas aeruginosa [1] = experiment: Synergistic antibacterial activity against Pseudomonas aeruginosa PAO1 assessed as reduction in cell viability at 10 to 50 uM incubated for 24 hrs in the presence of 1/2 MIC of tobramycin by LB agar plate method; format: functional, organism-based; settings: dose 10-50 µM
Pseudomonas aeruginosa [2] = experiment: Synergistic antibacterial activity against Pseudomonas aeruginosa clinical isolate 1121 assessed as fold reduction in bacterial viability at 50 uM incubated for 24 hrs in presence of 1/2 MIC of tobramycin by LB agar plate method relative to tobramycin alone; format: functional
Pseudomonas aeruginosa [3] = experiment: Synergistic antibacterial activity against Pseudomonas aeruginosa PAO1 assessed as fold reduction in bacterial survival rate incubated for 24 hrs in presence of ceftazidime by LB agar plate method; format: functional
Pseudomonas aeruginosa [4] = experiment: Synergistic antibacterial activity against Pseudomonas aeruginosa clinical isolate 1167 assessed as reduction in bacterial viability at 10 to 50 uM incubated for 24 hrs in presence of 1/2 MIC of polymyxin B by LB agar plate method; format: functional, organism-based; settings: dose 10-50 µM
Pseudomonas aeruginosa [5] = experiment: Synergistic antibacterial activity against Pseudomonas aeruginosa PAO1 assessed as reduction in cell viability at 10 to 50 uM incubated for 24 hrs in the presence of 1/8 MIC of tobramycin by LB agar plate method; format: functional, organism-based; settings: dose 10-50 µM
Pseudomonas aeruginosa [6] = experiment: Antibacterial activity against Pseudomonas aeruginosa clinical isolate 1031 assessed as inhibition of bacterial growth incubated for 24 hrs by CLSI protocol based method; format: functional, organism-based
Pseudomonas aeruginosa [7] = experiment: Antibacterial activity against Pseudomonas aeruginosa PAO1 infected in Caenorhabditis elegans assessed as worm survival rate at 50 uM measured after 72 hrs in presence of tobramycin at 1/2 MIC by bright field microscopic analysis relative to control; format: functional
Pseudomonas aeruginosa [8] = experiment: Antibacterial activity against Pseudomonas aeruginosa clinical isolate 1121 assessed as inhibition of bacterial growth incubated for 24 hrs by CLSI protocol based method; format: functional, organism-based
Pseudomonas aeruginosa [9] = experiment: Synergistic antibacterial activity against Pseudomonas aeruginosa clinical isolate 0815 assessed as reduction in bacterial viability at 10 to 50 uM incubated for 24 hrs in presence of 1/8 MIC of polymyxin B by LB agar plate method; format: functional, organism-based; settings: dose 10-50 µM
Pseudomonas aeruginosa [10] = experiment: Synergistic antibacterial activity against Pseudomonas aeruginosa PAO1 assessed as reduction in cell viability at 10 to 50 uM incubated for 24 hrs in the presence of 1/2 MIC of polymyxin B by LB agar plate method; format: functional, organism-based; settings: dose 10-50 µM
Pseudomonas aeruginosa [11] = experiment: Induction of Fe3+ chelating activity in Pseudomonas aeruginosa PAO1 assessed as increase in pyochelin production at 2.5 to 50 uM incubated for 24 hrs by fluorescence microplate reader; settings: dose 2.5-50 µM
Pseudomonas aeruginosa [12] = experiment: Antivirulence activity in Pseudomonas aeruginosa clinical isolate 0815 assessed as reduction in rhamnolipid production at 10 uM incubated for 24 hrs by absorbance based microtiter plate reader analysis; format: functional, organism-based
[13] = Inhibition of quorum sensing system in Pseudomonas aeruginosa PAO1 transfected with mini-ctx-lacZ reporter gene assessed as decrease in beta-galactosidase activity at 1.25 to 20 uM incubated for 6 hrs by Miller assay; settings: dose 1.25-20 µM
Pseudomonas aeruginosa [14] = experiment: Antibacterial activity against Pseudomonas aeruginosa PAO1 infected in Caenorhabditis elegans assessed as worm survival rate at 10 uM measured after 72 hrs in presence of tobramycin at 1/2 MIC by bright field microscopic analysis relative to control; format: functional
Pseudomonas aeruginosa [15] = experiment: Synergistic antibacterial activity against Pseudomonas aeruginosa clinical isolate 0815 assessed as reduction in bacterial viability at 10 to 50 uM incubated for 24 hrs in presence of 1/4 MIC of tobramycin by LB agar plate method; format: functional, organism-based; settings: dose 10-50 µM
Pseudomonas aeruginosa [16] = experiment: Synergistic antibacterial activity against Pseudomonas aeruginosa clinical isolate 1167 assessed as reduction in bacterial viability at 10 to 50 uM incubated for 24 hrs in presence of 1/8 MIC of polymyxin B by LB agar plate method; format: functional, organism-based; settings: dose 10-50 µM
Pseudomonas aeruginosa [17] = experiment: Antivirulence activity in Pseudomonas aeruginosa clinical isolate 0815 assessed as reduction in pyocyanin production at 10 uM incubated for 24 hrs by absorbance based analysis; format: functional, organism-based
Pseudomonas aeruginosa [18] = experiment: Synergistic antibacterial activity against Pseudomonas aeruginosa PAO1 assessed as reduction in cell viability at 10 to 50 uM incubated for 24 hrs in the presence of 1/4 MIC of polymyxin B by LB agar plate method; format: functional, organism-based; settings: dose 10-50 µM
[19] = Inhibition of quorum sensing system in Pseudomonas aeruginosa PAO1 transfected with mini-ctx-rhlA-lacZ reporter gene assessed as decrease in beta-galactosidase activity incubated for 6 hrs by Miller assay; settings: dose 1.25-20 µM
Pseudomonas aeruginosa [20] = experiment: Induction of Fe3+ chelating activity in Pseudomonas aeruginosa PAO1 assessed as increase in pyoverdine production by measuring fold change at 20 uM incubated for 24 hrs by fluorescence microplate reader
Pseudomonas aeruginosa [21] = experiment: Synergistic antibacterial activity against Pseudomonas aeruginosa clinical isolate 1121 assessed as reduction in bacterial viability at 10 to 50 uM incubated for 24 hrs in presence of 1/2 MIC of polymyxin B by LB agar plate method; format: functional, organism-based; settings: dose 10-50 µM
Pseudomonas aeruginosa [22] = experiment: Synergistic antibacterial activity against Pseudomonas aeruginosa clinical isolate 1121 assessed as reduction in bacterial viability at 10 to 50 uM incubated for 24 hrs in presence of 1/4 MIC of tobramycin by LB agar plate method; format: functional, organism-based; settings: dose 10-50 µM

Cc1cc(=O)c(O)c(C(=O)NCCCCCCCCNc2ccnc3cc(Cl)ccc23)n1C.Cl
Activity (Pseudomonas aeruginosa [1]): Active
fold change (FC) (Pseudomonas aeruginosa [2]): 15
fold change (FC) (Pseudomonas aeruginosa [3]): <10
Activity (Pseudomonas aeruginosa [4]): Active
Activity (Pseudomonas aeruginosa [5]): Active
Activity (Pseudomonas aeruginosa [6]): inactive
survival at 50 µM (Pseudomonas aeruginosa [7]): 81.5%
Activity (Pseudomonas aeruginosa [8]): inactive
Activity (Pseudomonas aeruginosa [9]): Active
Activity (Pseudomonas aeruginosa [10]): Active
Activity (Pseudomonas aeruginosa [11]): inactive
Activity (Pseudomonas aeruginosa [12]): Active
inhibition [13]: inactive
survival at 10 µM (Pseudomonas aeruginosa [14]): 28.4%
Activity (Pseudomonas aeruginosa [15]): Active
Activity (Pseudomonas aeruginosa [16]): Active
Activity (Pseudomonas aeruginosa [17]): Active
Activity (Pseudomonas aeruginosa [18]): Active
inhibition [19]: Dose-Dependent Effect
fold change (FC) (Pseudomonas aeruginosa [20]): 10
Activity (Pseudomonas aeruginosa [21]): Active
Activity (Pseudomonas aeruginosa [22]): Active
